Patent US20100129343A1, “Use Of A Compound For Enhancing The Expression Of Membrane Proteins On The Cell Surface” (Axentis Pharma AG, priority 2004, published 2010)
Entries after “also recorded” stand apart in the source; their conditions may differ.

How the values were obtained:
Assay type in all cases: cell-based
CFTR-ΔF508 [1] = experiment: Immunoblot for GFP-tagged CFTR-ΔF508 expressed in HEK293 cells; details: 16 h, endoglycosidase H treated extract
Method: HEK293 cells (1*10^6 cells) were transfected with plasmids encoding CFTR or CFTR-ΔF508 (GFP-tagged) and/or co-transfected with effector plasmids. After 16h, the cells were treated with the varying concentrations of compounds. After 24h, the cells were harvested in phosphate-buffered saline, lysed by a freeze-thaw cycle and homogenized by sonication. The homogenate was resuspended in reducing Laemmli sample buffer (50 mM Tris.HCl, pH 6.8, 20% glycerol, 0.1% bromphenol blue, 2% SDS and 20 mM dithiothreitol); aliquots (15% of the original culture) were resolved on a denaturing polyacrylamide gel (monomer concentration in the stacking gel and in the running gel 4 and 8% respectively) and electrophoretically transferred to a nitrocellulose membrane. Immunodetection was done with an antiserum directed against GFP as the primary antibody and an anti-rabbit IgG coupled to horseradish peroxidase as the secondary antibody.
In a first example, Membranes from transfected cells were prepared and immunoblotted for GFP-tagged CFTR or CFTR-ΔF508, respectively (by using an antibody directed against the fluorescent protein).
The membrane extract was also treated endoglycosidase H. The rationale for this experiment is as follows: membrane proteins are core glycosylated in the endoplasmatic reticulum. Core gylcosylation is sensitive to endoglycosidase H. If the protein has reached the Golgi (and then trafficked to the plasma membrane), it acquires additional sugar moieties and becomes resistant to endoglycosidase H. It is evident from lane 3 in FIG. 6 that endoglycosidase H treatment reduces the apparent size of CFTR; thus, the bulk of the protein is still in the ER. The following lanes examine the expression of CFTR-ΔF508 (all extracts were treated with endoglycosidase H): lane 4 is the control, that is cells expressing CFTR-ΔF508; in lanes 5, 6, 7 and 8 cells expressing CFTR-ΔF508 were treated overnight (i.e. for 16 h) with 100 nM MG132, 20 μM kifunensine, 1 μM and 100 nM bortezomib, respectively.

CFTR-ΔF508 [2] = experiment: FACS monitoring of GFP-tagged CFTR-ΔF508 expression in HEK293 cells
Method: (§1) Cultured HEK293 cells were transfected with plasmids encoding CFTR or CFTR-ΔF508 (GFP-tagged) and/or co-transfected with plasmids encoding USP4 (or an appropriate control plasmid) by using the CaPO4-precipitation method. Sixteen hours after transfection the cells were treated with varying concentrations of compounds. At a specific time point (here 24 h) the cells are trypsinized, fixed in ethanol, permeabilized and stained with propidium iodide (PI). The stained cells are subjected to FACS analysis
Because CFTR is tagged with a fluorescent protein, expression in individual cells can be monitored by fluorescence activated cell sorting (FACS). By contrast with fluorescence microscopy (where individual cells are picked), FACS allows to survey the entire cell population. In addition, FACS has the advantage that it allows for reasonable sample throughput; finally, automation and scale-up is readily possible. […]
The original data set is shown on the right hand side of the figures, respectively (see e.g. FIG. 7c): the x-axis is the propidium iodide fluorescence (note that the scale is linear). The y-axis is the GFP-fluorescence (=fluorescence associated with CFTR; note that the scale is logarithmic) and each dot corresponds to a cell. […]

HEK293 cells = experiment: FACS propidium iodide staining: cell cycle distribution / apoptosis of HEK293 cells
Method: as §1
Transiently transfected HEK293 cells were fixed in ethanol 24 h after transfection as mentioned above and then stained with propidium iodide to label the DNA: the rationale was to examine the distribution of cells in the cell cycle (=to see if the expression of CFTR or of CFTR-ΔF508 was toxic or if the compounds employed killed the cells/drove them into apoptosis).
One can plot the cell counts against the propidium iodide fluorescence of the transfected cells (such as shown in, for example, FIG. 7b): This gives a peak of cells (denoted by M1) that have a 2n content of DNA (G1-cells), a shoulder of cells that have a DNA content of larger than 2n (denoted by M3 and representing cells that are in S-phase) and a second peak of cells that have a DNA content of 4n (denoted by M2 and representing cells in G2 and M-phase).

A2A-receptor = biological target: T1, A2A-receptor (Rattus norvegicus, UniProt P30543); experiment: [3H]ZM241385 saturation binding to membranes from PC12 cells (endogenous A2A-receptor); details: 100 μM chloroquine for 3h
T1 construct: PC12 cells (that endogenously express the A2A-receptor); endogenous in cells; host or cells: PC12 (rat pheochromocytoma), membranes
Method: Membranes were prepared from PC12 cells, which had been incubated in the presence or in the absence of 50 μM MG132 or 100 μM chloroquine for 3h, and were incubated in buffer containing the indicated concentrations of [^3H]ZM241385 in the presence of 100 μM GTPγS.
Membranes (100 μg/assay) that had been prepared from PC12 cells or HEK293 cells transiently transfected with the appropriate plasmids were incubated in a final volume of 0.3 ml containing 50 mM Tris.HCl (pH 8.0), 1 mM EDTA, 5 mM MgCl2, 8 μg/ml adenosine deaminase and concentrations of [^3H]ZM241385 (specific activity ˜20 Ci/mmol) covering the range of 0.2 to 20 nM in the presence of 100 μM GTPγS (Klinger et al., 2002). After 60 min at room temperature, the reaction was terminated by rapid filtration over glass fiber filters. Nonspecific binding was determined in the presence of 10 μM XAC and amounted to 40% at the highest concentration of [^3H]ZM241385. The data points were fitted by non-linear regression to the equation describing a rectangular hyperbola. Assays were performed in duplicate.

T1 sequence (P30543 whole entry): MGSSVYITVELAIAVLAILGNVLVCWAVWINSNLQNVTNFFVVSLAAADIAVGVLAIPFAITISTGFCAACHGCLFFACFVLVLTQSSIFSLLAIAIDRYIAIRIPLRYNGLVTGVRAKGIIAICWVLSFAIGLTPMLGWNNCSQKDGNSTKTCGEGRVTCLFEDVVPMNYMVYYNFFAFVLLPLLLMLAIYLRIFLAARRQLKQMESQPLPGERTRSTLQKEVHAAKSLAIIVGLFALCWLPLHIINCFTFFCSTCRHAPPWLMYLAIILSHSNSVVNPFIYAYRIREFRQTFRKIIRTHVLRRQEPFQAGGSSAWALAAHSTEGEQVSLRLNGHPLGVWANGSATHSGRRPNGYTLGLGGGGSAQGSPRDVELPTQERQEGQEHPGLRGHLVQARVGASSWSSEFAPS

Structure (SMILES): CC(C)C[C@H](NC(=O)[C@H](Cc1ccccc1)NC(=O)c1cnccn1)B(O)O [Bortezomib, N-(2-pyrazine)carbonyl-L-phenylalanine-L-leucine-boronic acid]
- accumulation of CFTR-ΔF508 (intensity of staining vs control lane) (CFTR-ΔF508 [1]; 100 nM bortezomib): led to the accumulation of CFTR-ΔF508; also recorded: more effective than 1 μM bortezomib
- accumulation of CFTR-ΔF508 (intensity of staining vs control lane) (CFTR-ΔF508 [1]; 1 μM bortezomib): led to the accumulation of CFTR-ΔF508
- CFTR-ΔF508-associated fluorescence (CFTR-ΔF508 [2]; 10 nM bortezomib): expression of CFTR is increased; also recorded: substantially increases the level of CFTR-ΔF508
- CFTR-ΔF508-associated fluorescence (CFTR-ΔF508 [2]; 100 nM bortezomib): expression of CFTR is increased
- cell cycle distribution (HEK293 cells; 10 nM bortezomib, CFTR-ΔF508 expressing cells): essentially the same as the one shown in control cells
- peak of the G1-cells (M1) (HEK293 cells; 100 nM Bortezomib, CFTR-ΔF508 expressing cells): greatly reduced
- number of cells with low propidium iodide fluorescence (apoptotic) (HEK293 cells; 100 nM bortezomib): number of cells with low propidium iodide fluorescence increases
- number of cells with low propidium iodide fluorescence (apoptotic) (HEK293 cells; 1 μM Bortezomib): number of cells with low propidium iodide fluorescence increases
- peak of the G1-cells (M1) (HEK293 cells; 1 μM Bortezomib, CFTR-ΔF508 expressing cells): greatly reduced
- cell mortality / apoptosis, general statement (HEK293 cells; within the therapeutic window (Bortezomib), very small dosage (MG132)): no increased cell mortality is observed

Structure (SMILES): CCN(CC)CCCC(C)Nc1ccnc2cc(Cl)ccc12 (stereo not drawn) [choloroquine, chloroquine]
- A2A-receptor levels (A2A-receptor): did not affect the A2A-receptor levels

Structure (SMILES): O=C1N[C@@H]2[C@@H](O)[C@@H](O)[C@H](O)[C@@H](CO)N2C1=O [kifunensine]
- accumulation of CFTR-ΔF508 (intensity of staining vs control lane) (CFTR-ΔF508 [1]; 20 μM kifunensine): led to the accumulation of CFTR-ΔF508
